Assay: Viscosity of preferred lipids
Assay type: physicochemical

Row | Viskosity (in mPas) (s^−1 = 500) | Compound
1 | 100 mPas | CCCCCCCCCCCCCCCCCC(=O)OCCCC [Crodamol BS, Butyl Stearate]
2 | 113 mPas | CC(C)CCCCCCCCCCCCCCCOC(=O)CC(O)C(=O)OCCCCCCCCCCCCCCCC(C)C (centres unmarked) [DUB MDIS, Diisostearyl Malate]
3 | 220 mPas | CC(C)CCCC(C)CCCC(C)CCCCC(C)CCCC(C)CCCC(C)C (centres unmarked) [Motif, Squalan]
4 | 116 mPas | CCCCC(CC)C(=O)OCC(COC(=O)C(CC)CCCC)(COC(=O)C(CC)CCCC)COC(=O)C(CC)CCCC (centres unmarked) [Trivent PE 48, Pentaerythrityl Tetraethylhexanoate]
5 | 65 mPas | Hydroxystearate Glycerol Triacetyle
6 | 110 mPas | PEG-2 Diethylhexanoate [Dermol 488]
7 | 390 mPas | Pentaerythrityl Tetraisostearate [Crodamol PTIS 3797]
8 | 57 mPas | Pentaerythrityl Tetraisostearate [DUB PTIS]
9 | 116 mPas | Tridecyl Trimellitate [DUB TMTD]
10 | 111 mPas | Triisodecyl Trimelliate [DUB TMI]
11 | 67 mPas | Triisononanoin [Isodragol]
12 | 99 mPas | Triisostearin [Prisorine 2041 GTIS]

Row | Compound | Viskosity (in mPas) (s^−1 = 500)
13 | CCCCCCCCCCC(CO)CCCCCCCC (centres unmarked) [Eutanol G, Octyldodecanol] | 47.7 mPas
14 | CCCCOCCOP(=O)(OCCOCCCC)OCCOCCCC [Hostaphat B 310, Tributoxyethylphosphate] | 122 mPas

Reference: patent publication US20090191144A1, “USE OF LIPID COMPONENTS AGAINST POLLEN ALLERGIES” (BEIERSDORF AG, priority 2008, published 2009)
